Drawing on BindingDB's records for doi:10.1021/acschembio.6b00609 (University of Manchester, 2016), this text covers IC50 for five molecules.

The target of this assay is Poly(ADP-ribose) glycohydrolase (Homo sapiens, UniProt Q86W56). The assay is described as follows: PARG Biochemical Assay. The following applies: pH 7.4. How it is done: Briefly, PARG in vitro assays were conducted in a total volume of 15 μL in a standard 384-well format. A total of 5 μL of human full length PARG (AstraZeneca), used at a final reaction concentration of 65 pM, was added to 5 μL of Bt-NAD ribosylated PARP1 substrate (AstraZeneca) at a final reaction concentration of 4.8 nM in assay buffer (50 mM Tris pH 7.4, 0.1 mg mL−1 BSA, 3 mM EDTA, 0.4 mM EGTA, 1 mM DTT, 0.01% Tween 20, 50 mM KCl). The reaction was incubated at RT for 10 min, and then 5 μL of detection reagent was added. Detection reagent consists of 42 nM mAb anti-6HIS XL665 (CisBio: 61HISXLB) and2.25 nM streptavidin europium cryptate (CisBio: 610SAKLB), both at 3× working stock concentrations (final concentrations of 14 nM and 0.75 nM, respectively), in detection buffer (50 mM Tris pH 7.4, 0.1 mg mL−1 BSA and 100 mM KF). Following incubation at RT for 60 min in the dark, TR-FRET signal was measured at λEx 340 nm and λEm 665 nm and λEm
Sequence of Poly(ADP-ribose) glycohydrolase (Q86W56 whole entry): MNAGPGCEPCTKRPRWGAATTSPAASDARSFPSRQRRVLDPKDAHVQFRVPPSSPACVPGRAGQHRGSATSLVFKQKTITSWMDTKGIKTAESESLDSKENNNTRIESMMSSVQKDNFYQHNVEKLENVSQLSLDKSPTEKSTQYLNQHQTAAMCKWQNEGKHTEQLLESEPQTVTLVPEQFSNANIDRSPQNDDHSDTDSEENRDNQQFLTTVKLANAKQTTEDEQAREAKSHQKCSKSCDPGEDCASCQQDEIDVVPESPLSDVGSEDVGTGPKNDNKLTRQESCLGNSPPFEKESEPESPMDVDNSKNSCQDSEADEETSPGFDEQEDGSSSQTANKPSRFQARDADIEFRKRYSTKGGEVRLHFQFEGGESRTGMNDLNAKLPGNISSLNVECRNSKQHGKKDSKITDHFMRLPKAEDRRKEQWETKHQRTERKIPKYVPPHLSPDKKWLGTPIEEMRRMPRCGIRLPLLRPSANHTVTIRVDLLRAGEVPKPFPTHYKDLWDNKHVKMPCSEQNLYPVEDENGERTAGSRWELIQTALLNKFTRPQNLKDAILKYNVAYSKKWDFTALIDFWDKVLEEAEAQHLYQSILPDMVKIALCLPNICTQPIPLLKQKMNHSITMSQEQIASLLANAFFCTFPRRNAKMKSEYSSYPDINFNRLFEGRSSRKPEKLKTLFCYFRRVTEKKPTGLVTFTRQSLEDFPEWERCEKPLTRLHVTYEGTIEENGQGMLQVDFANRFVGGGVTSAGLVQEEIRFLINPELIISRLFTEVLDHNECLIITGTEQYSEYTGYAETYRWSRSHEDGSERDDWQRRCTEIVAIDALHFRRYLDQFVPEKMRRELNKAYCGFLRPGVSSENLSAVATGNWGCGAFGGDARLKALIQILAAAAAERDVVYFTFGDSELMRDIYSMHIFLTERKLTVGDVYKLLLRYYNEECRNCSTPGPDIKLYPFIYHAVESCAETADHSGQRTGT

For orientation: IC50 means the concentration needed to halve the response being measured. Low values mean inhibition by little substance, high ones a need for much substance. In turn, `CC(C)(C)NS(=O)(=O)c1ccc2c(c1)C(=O)c1ccccc1C2=O` [PDD00013907 (1)] displayed a concentration for half-maximal inhibition (IC50) of more than 60 µM.

As for `Cc1nc(C)c(Cn2c(=O)n(-c3ncns3)c3cc(S(=O)(=O)N(C)C4(C)CC4)ccc32)s1` [PDD00031705 (7)], the IC50 was more than 60 µM.

For `Cc1cc(Cn2c(=O)n(Cc3cnc(C)s3)c(=O)c3cc(S(=O)(=O)NC4(C)CC4)ccc32)n(C)n1` [PDD00017273 (4)], the half-maximal inhibitory concentration (IC50) came out at 0.026 µM.

`Cc1cc(Cn2c(=O)n(Cc3cnc(C)s3)c(=O)c3cc(S(=O)(=O)N(C)C4(C)CC4)ccc32)n(C)n1` [PDD00031704 (6)] yielded an IC50 of more than 60 µM.

With `Cc1nc(C)c(Cn2c(=O)n(-c3ncns3)c3cc(S(=O)(=O)NC4(C)CC4)ccc32)s1` [PDD00017238 (5)], the IC50 came out at 0.04 µM.
